# Reference: patent US8227478B2, “JNK modulators” (Roche Palo Alto LLC, priority 2008, dated 2012)
# Several values for one entry are separate records, joined by “and”; a condition that tells them apart may be missing. Equal entries are not always repeated.
# How the values were obtained:
# Human JNK1α1 = Human JNK1α1 (Homo sapiens, UniProt P45983); test: JNK assay in vitro, phosphorylation of GST-ATF2 (19-96) with [γ-33P] ATP; format: biochemical; details: Human JNK1α1, 2 nM enzyme, 1 μM ATF2, 6 μM ATP (Km); read-out: JNK1 - IC50
# Human JNK1α1, sequence (P45983 1-384 isoform P45983-2): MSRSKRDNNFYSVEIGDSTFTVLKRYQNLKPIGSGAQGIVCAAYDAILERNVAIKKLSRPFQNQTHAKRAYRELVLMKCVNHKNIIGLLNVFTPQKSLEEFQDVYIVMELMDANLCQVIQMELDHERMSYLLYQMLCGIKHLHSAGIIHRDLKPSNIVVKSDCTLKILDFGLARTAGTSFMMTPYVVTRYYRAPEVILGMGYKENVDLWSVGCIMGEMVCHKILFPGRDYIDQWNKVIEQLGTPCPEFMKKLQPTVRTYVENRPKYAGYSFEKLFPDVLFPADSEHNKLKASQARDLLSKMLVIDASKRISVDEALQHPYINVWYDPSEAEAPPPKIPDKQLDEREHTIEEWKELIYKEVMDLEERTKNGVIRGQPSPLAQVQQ
# Protocol: (§1) JNK activity was measured by phosphorylation of GST-ATF2 (19-96) with [γ-^33P] ATP. The enzyme reaction was conducted at Km concentrations of ATP and the substrate at final volume of 40 μl in buffer containing 25 mM HEPES, pH 7.5, 2 mM dithiothreitol, 150 mM NaCl, 20 mM MgCl2, 0.001% Tween® 20, 0.1% BSA and 10% DMSO. Human JNK2α2 assay contains 1 nM enzyme, 1 μM ATF2, 8 μM ATP with 1 uCi [γ-^33P] ATP. Human JNK1α1 assay contains 2 nM enzyme, 1 μM ATF2, 6 μM ATP with 1 μCi [γ-^33P] ATP. Human JNK3 (Upstate Biotech #14-501M) assay contains 2 nM enzyme, 1 μM ATF2, 4 μM ATP with 1 μCi [γ-^33P] ATP. The enzyme assay was carried out in the presence or absence of several compound concentrations. JNK and compound were pre-incubated for 10 min., followed by initiation of the enzymatic reaction by adding ATP and the substrate. The reaction mixture was incubated at 30° C. for 30 min. At the end of incubation, the reaction was terminated by transferring 25 μl of the reaction mixture to 150 μl of 10% glutathione Sepharose® slurry (Amersham #27-4574-01) containing 135 mM EDTA. The reaction product was captured on the affinity resin, and washed on a filtration plate (Millipore, MABVNOB50) with phosphate buffered saline for six times to remove free radionucleotide. The incorporation of ^33P into ATF2 was quantified on a microplate scintillation counter (Packard Topcount). Compound inhibition potency on JNK was measured by IC50 value generated from ten concentration inhibition curves fitted into the 3-parameter model: % inhibition=Maximum/(1+(IC50/[Inhibitor])^slope). Data were analyzed on Microsoft Excel for parameter estimation.
# Human JNK2α2 = Human JNK2α2 (Homo sapiens, UniProt P45984); test: as above; format: biochemical; details: Human JNK2α2, 1 nM enzyme, 1 μM ATF2, 8 μM ATP (Km); read-out: JNK2 - IC50
# Human JNK2α2, sequence (P45984 whole entry): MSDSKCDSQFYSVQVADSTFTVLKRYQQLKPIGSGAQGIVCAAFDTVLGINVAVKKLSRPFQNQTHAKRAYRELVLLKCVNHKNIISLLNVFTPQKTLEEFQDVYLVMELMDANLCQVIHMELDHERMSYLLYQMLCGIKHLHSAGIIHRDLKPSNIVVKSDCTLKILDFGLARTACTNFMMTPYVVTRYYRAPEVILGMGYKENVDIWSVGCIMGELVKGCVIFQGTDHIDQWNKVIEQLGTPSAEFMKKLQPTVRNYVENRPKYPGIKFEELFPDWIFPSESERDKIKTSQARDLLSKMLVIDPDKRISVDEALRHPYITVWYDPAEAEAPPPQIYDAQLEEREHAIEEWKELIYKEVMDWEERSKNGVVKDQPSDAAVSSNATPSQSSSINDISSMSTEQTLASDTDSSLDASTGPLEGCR
# Protocol: as §1
# phospho-c-Jun = test: Phospho-c-Jun translocation assay in TNFα-activated SW1353 cells; format: cell-based; details: Homo sapiens, TNFα 1 ng/ml for 20 min, 30 min compound pre-incubation
# From the text: Inflammation is regulated in part by the action of c-Jun on other genes in the inflammatory pathway. Thus, inhibition of phosphorylated c-Jun translocation to the nucleus provides an indication of the anti-inflammatory activity of a compound. SW1353 cells were purchased from the American Tissue Culture Collection and maintained in growth media containing DMEM medium (Invitrogen) with 10% fetal bovine serum (Invitrogen), ascorbic acid (Sigma), and penicillin/streptomycin/[…] (Invitrogen) under culture conditions (at 37° C. with 5% CO2). Cells were plated at a density of 8,000 cells/well in 100 μl growth medium 24 h prior to the compound treatment. Immediately before the compound treatment, growth media was replaced with 90 μl of fresh media. Compound stock at 10 mM was first diluted in compound vehicle (DMSO) to 3 mM, then diluted in serum-free medium and added to each well as a 10× concentrated solution in a volume of 10 μl, mixed, and pre-incubated with cells for 30 min at 37° C. in 5% CO2. Compound vehicle (DMSO) was maintained at a final concentration of 1% for all samples. After 30 min incubation, the cells were activated with TNFα (1 ng/ml, Roche Biochem) for 20 min. Cells were then fixed, permeabilized, and stained with anti-phospho-c-Jun antibody (Santa Cruz), followed by Alexa Fluor 488 labeled secondary antibody and Hoechet 33342 dye (Invitrogen) per manufacturer's instructions. The signals of phospho-c-Jun were measured for 400 cells per well by the ArrayScan HCS system (Cellomic). The IC50 values were calculated as the concentration of the compound at which the phospho-c-Jun activity was inhibited to 50% of the control value using the 4-parameter fitting function in the ActivityBase program (IDBS).
IC50 (Human JNK1α1) [nM],IC50 (Human JNK2α2) [nM],IC50 (phospho-c-Jun) [nM],melting point,SMILES
28.7,91.2,5810,266 to 267 °C,O=C([C@H]1CC[C@H](Nc2nccc(-n3nnc4c(-c5ccncc5)cccc43)n2)CC1)N1CCC(O)CC1 [Compound 8]
44,175,2520,258 to 259 °C,"O=C([C@H]1CC[C@H](Nc2nccc(-n3ccc4c(-c5ccncc5)cccc43)n2)CC1)N1CCC(O)CC1 [Compound 16, (4-Hydroxy-piperidin-1-yl)-{4-[4-(4-pyridin-4-yl-indol-1-yl)-pyrimidin-2-ylamino]-cyclohexyl}-methanone]"
2.8,12.7,703,246 to 247 °C,Cc1cscc1-c1cccc2c1nnn2-c1ccnc(N[C@H]2CC[C@H](C(=O)N3CCC(O)CC3)CC2)n1 [Compound 1]
48.4,225,,,"Cc1noc(C)c1-c1cccc2c1ccn2-c1ccnc(N[C@H]2CC[C@H](C(=O)N3CCC(O)CC3)CC2)n1 [Compound 13, (4-{4-[4-(3,5-Dimethyl-isoxazol-4-yl)-indol-1-yl]-pyrimidin-2-ylamino}-cyclohexyl)-(4-hydroxy-piperidin-1-yl)-methanone]"
3,14,2160,231 to 232 °C,"Cc1n[nH]cc1-c1cccc2c1nnn2-c1ccnc(NC2CCN(S(C)(=O)=O)CC2)n1 [Compound 10, (1-Methanesulfonyl-piperidin-4-yl)-{4-[4-(3-methyl-1H-pyrazol-4-yl)-benzotriazol-1-yl]-pyrimidin-2-yl}-amine]"
27.5,90.4,2820,194.3 to 218.2 °C,"Cc1ccncc1-c1cccc2c1nnn2-c1ccnc(N[C@H]2CC[C@H](C(=O)N3CCC(O)CC3)CC2)n1 [Compound 3, (4-Hydroxy-piperidin-1-yl)-(4-{4-[4-(4-methylpyirin-3-yl)-benzotriazol-1-yl]-pyrimidin-2-ylamino}-cyclohexyl)-methanone]"
33.1,98.7,8370,168 to 188 °C,"Cc1cscc1-c1cccc2c1ccn2-c1ccnc(N[C@H]2CC[C@H](C(=O)N3CCC(O)CC3)CC2)n1 [Compound 7, (4-Hydroxy-piperidin-1-yl)-(4-{4-[4-(4-methyl-thiophen-3-yl)-indol-1-yl]-pyrimidin-2-ylamino}-cyclohexyl)-methanone]"
87.7,341,,176 to 178 °C,"Cc1ccncc1-c1cccc2c1ccn2-c1ccnc(N[C@H]2CC[C@H](C(=O)N3CCC(O)CC3)CC2)n1 [Compound 14, (4-Hydroxy-piperidin-1-yl)-(4-{4-[4-(4-methyl-pyridin-3-yl)-indol-1-yl]-pyrimidin-2-ylamino}-cyclohexyl)-methanone]"
5.8,19.9,678,224 to 226 °C and 224.6 to 225.9 °C,"Cc1ccccc1-c1cccc2c1nnn2-c1ccnc(N[C@H]2CC[C@H](C(=O)N3CCC(O)CC3)CC2)n1 [Compound 2, (4-Hydroxy-piperidin-1-yl)-{4-[4-(4-o-tolyl-benzotriazol-1-yl)-pyrimidin-2-ylamino]-cyclohexyl}-methanone]"
5.2,18.6,434,,"Cc1n[nH]cc1-c1cccc2c1nnn2-c1ccnc(N[C@H]2CC[C@H](C(=O)N3CCC(O)CC3)CC2)n1 [Compound 11, (4-Hydroxy-piperidin-1-yl)-(4-{4-[4-(3-methyl-1H-pyrazol-4-yl)-benzotriazol-1-yl]-pyrimidin-2-ylamino}-cyclohexyl)-methanone]"
47.9,189,,171 to 172 °C,"O=C([C@H]1CC[C@H](Nc2nccc(-n3ccc4c(-c5ccsc5)cccc43)n2)CC1)N1CCC(O)CC1 [Compound 18, (4-hydroxy-piperidin-1-yl)-{4-[4-(4-thiophen-3-yl-indol-1-yl)-pyrimidin-2-ylamino]-cyclohexyl}-methanone]"
43.2,105,2580,> 300 °C,"Cc1noc(C)c1-c1cccc2c1nnn2-c1ccnc(N[C@H]2CC[C@H](C(=O)N3CCC(O)CC3)CC2)n1 [Compound 4, (4-{4-[4-(3,5-Dimethylisoxazol-4-yl)-benzotriazol-1-yl]-pyrimidin-2-ylamino}-cyclohexyl)-(4-hydroxy-piperidin-1-yl)-methanone]"
20.3,67.8,3300,233 to 234 °C,"O=C([C@H]1CC[C@H](Nc2nccc(-n3nnc4c(-c5ccsc5)cccc43)n2)CC1)N1CCC(O)CC1 [Compound 6, (4-Hydroxy-piperidin-1-yl)-{4-[4-(4-thiophen-3-ylbenzotriazol-1-yl)-pyrimidin-2-ylamino]-cyclohexyl}-methanone]"
39.7,130,≥ 30000,243 to 244 °C,"O=C([C@H]1CC[C@H](Nc2nccc(-n3nnc4c(-c5ccoc5)cccc43)n2)CC1)N1CCC(O)CC1 [Compound 9, {4-[4-(4-Furan-3-yl-benzotriazol-1-yl)-pyrimidin-2-ylamino]-cyclohexyl}-(4-hydroxy-piperidin-1-yl)-methanone]"
31.7,121,2590,215 to 220 °C,"Cc1n[nH]cc1-c1cccc2c1ccn2-c1ccnc(N[C@H]2CC[C@H](C(=O)N3CCC(O)CC3)CC2)n1 [Compound 12, (4-Hydroxy-piperidin-1-yl)-(4-{4-[4-(3-methyl-1H-pyrazol-4-yl)-indol-1-yl]-pyrimidin-2-ylamino}-cyclohexyl)-methanone]"
3.6,17.8,13900,,"Cc1cscc1-c1cccc2c1nnn2-c1ccnc(NC2CCN(S(C)(=O)=O)CC2)n1 [Compound 5, (1-Methanesulfonyl-piperidin-4-yl)-{4-[4-(4-methyl-thiophen-3-yl)-benzotriazol-1-yl]-pyrimidin-2-yl}-amine]"
262,856,,190 to 191 °C,"O=C([C@H]1CC[C@H](Nc2nccc(-n3ccc4c(-c5ccccc5)cccc43)n2)CC1)N1CCC(O)CC1 [Compound 17, (4-Hydroxy-piperidin-1-yl)-{4-[4-(4-phenyl-indol-1-yl)-pyrimidin-2-ylamino]-cyclohexyl}-methanone]"
64.7,220,,158 to 160 °C,"Cc1ccccc1-c1cccc2c1ccn2-c1ccnc(N[C@H]2CC[C@H](C(=O)N3CCC(O)CC3)CC2)n1 [Compound 15, (4-Hydroxy-piperidin-1-yl)-{4-[4-(4-o-tolyl-indol-1-yl)-pyrimidin-2-ylamino]-cyclohexyl}-methanone]"
